Experimental data reported in patent publication US20150335647A1, “Methods of Increasing Liver Proliferation” (priority 2009, published 2015).

Legend:
BMP signaling = settings: in vivo; cited from earlier work
MAPK p38 activation = settings: cited from earlier work
[1] = Systemic toxicity of dorsomorphin administration for up to 60 days
Description: To provide clinical relevance for the findings discussed above, eight week old mice were injected with an antagonist of BMP signaling. Dorsomorphin was injected for 48 hours prior to, during, and after ⅔ hepatectomy. Specifically, dorsomorphin was injected multiple times at 24 and 12 hours prior to hepatectomy, at the time of hepatectomy, and 12, 24, and 36 hours after hepatectomy.

hepatocyte proliferation = test: BrdU hepatocyte proliferation after 2/3 hepatectomy in mice treated with dorsomorphin; type: in vivo; settings: 8 week old mice, dorsomorphin 10 mg/kg vs saline, injected 24 and 12 h prior to, at, and 12, 24, 36 h after 2/3 hepatectomy; measured at 36 and 48 hours
Description: Animals were used to examine the role of various members of BMP signaling in restoration of liver mass after injury. Mice were subjected to two-thirds (“⅔”) or massive eighty percent (80%) hepatectomy. Surgery was performed on adult mice at least 8 weeks of age. For surgery, mice were anesthetized with 100 mg/kg ketamine and 10 mg/kg xylazine which were injected intraperitoneally. […] This was repeated until the subject was unconscious. Hair was removed from the surgical site using a clipper and the skin was disinfected using aseptic technique and betadyne. The scrubbed area was rinsed with 70% alcohol. To avoid hypothermia, the animal was not wetted more than necessary. An incision was made with a sterile scissors at the level of the xiphiod approximately one centimeter toward the umbilicus. The peritoneum was entered with a scissors and the tip of the xiphoid was excised. For ⅔ hepatectomy, the liver was exteriorized through the incision via gentle pressure on the flanks over an area previously prepped. A 4-0 silk ligature was placed around the exteriorized portion of the liver and tied. The anterior portion of the liver distal to the tie was then excised. A 4-0 proline was used to close the fascia and a 4-0 nylon was used to close the skin in a subcuticular fashion. […]

[2] = test system: osteogenic differentiation induced by BMP4 or BMP6; settings: induced by BMP4 or BMP6 in vitro; compared with noggin; cited from earlier work
[3] = test system: type I BMP receptors, namely, ALK2, ALK3, and ALK6; settings: cited from earlier work
[4] = test system: BMP-mediated SMAD 1, 5 and 8 phosphorylation; settings: cited from earlier work

Question: Which “dorsalization in zebrafish embryos” value (BMP signaling) does the source give for `c1cc(-c2cnn3cc(-c4ccc(OCCN5CCCCC5)cc4)cnc23)ccn1` [Dorsomorphin] here?
Answer: The value was “effectively promote dorsalization”.

Question: And the “MAPK p38 activation” value (MAPK p38 activation)?
Answer: The value was “without affecting”.

Question: What about the “effect on bone marrow” value [1] of the same compound?
Answer: Its value is “no effect”.

Question: And the effect on growth [1]?
Answer: Its effect on growth is “no effect”.

Question: And the “effect on white blood cell count” value [1]?
Answer: The value was “no effect”.

Question: What about the systemic toxicity [1] of the same compound?
Answer: The systemic toxicity was “did not produced systemic toxicity”.

Question: What about the “hepatocyte proliferation (BrdU incorporation)” value (hepatocyte proliferation) of the same compound?
Answer: The value was “marked enhancement of hepatocyte proliferation”.

Question: What about the “inhibition of osteogenic differentiation” value [2] of the same compound?
Answer: The value was “more potent than that seen with treatment with noggin”.

Question: And the “inhibition of type I BMP receptors ALK2, ALK3, and ALK6” value [3]?
Answer: The value was “selectively inhibiting”.

Question: And the “BMP-mediated SMAD 1, 5 and 8 phosphorylation” value [4]?
Answer: The value was “block”.
